Assay results taken from ChEMBL document CHEMBL4420070, “6-6 Fused Bicyclic Heteroaryl Compounds and their Use as LATS Inhibitors” (2018).

Tests used:
[1] = biological target: T1, Serine/threonine-protein kinase LATS1 (Homo sapiens, UniProt O95835); experiment: Inhibition of human LATS1 kinase domain (589 to 1130 amino acids) incubated for 30 mins by HTRF assay
T1 sequence (O95835 whole entry): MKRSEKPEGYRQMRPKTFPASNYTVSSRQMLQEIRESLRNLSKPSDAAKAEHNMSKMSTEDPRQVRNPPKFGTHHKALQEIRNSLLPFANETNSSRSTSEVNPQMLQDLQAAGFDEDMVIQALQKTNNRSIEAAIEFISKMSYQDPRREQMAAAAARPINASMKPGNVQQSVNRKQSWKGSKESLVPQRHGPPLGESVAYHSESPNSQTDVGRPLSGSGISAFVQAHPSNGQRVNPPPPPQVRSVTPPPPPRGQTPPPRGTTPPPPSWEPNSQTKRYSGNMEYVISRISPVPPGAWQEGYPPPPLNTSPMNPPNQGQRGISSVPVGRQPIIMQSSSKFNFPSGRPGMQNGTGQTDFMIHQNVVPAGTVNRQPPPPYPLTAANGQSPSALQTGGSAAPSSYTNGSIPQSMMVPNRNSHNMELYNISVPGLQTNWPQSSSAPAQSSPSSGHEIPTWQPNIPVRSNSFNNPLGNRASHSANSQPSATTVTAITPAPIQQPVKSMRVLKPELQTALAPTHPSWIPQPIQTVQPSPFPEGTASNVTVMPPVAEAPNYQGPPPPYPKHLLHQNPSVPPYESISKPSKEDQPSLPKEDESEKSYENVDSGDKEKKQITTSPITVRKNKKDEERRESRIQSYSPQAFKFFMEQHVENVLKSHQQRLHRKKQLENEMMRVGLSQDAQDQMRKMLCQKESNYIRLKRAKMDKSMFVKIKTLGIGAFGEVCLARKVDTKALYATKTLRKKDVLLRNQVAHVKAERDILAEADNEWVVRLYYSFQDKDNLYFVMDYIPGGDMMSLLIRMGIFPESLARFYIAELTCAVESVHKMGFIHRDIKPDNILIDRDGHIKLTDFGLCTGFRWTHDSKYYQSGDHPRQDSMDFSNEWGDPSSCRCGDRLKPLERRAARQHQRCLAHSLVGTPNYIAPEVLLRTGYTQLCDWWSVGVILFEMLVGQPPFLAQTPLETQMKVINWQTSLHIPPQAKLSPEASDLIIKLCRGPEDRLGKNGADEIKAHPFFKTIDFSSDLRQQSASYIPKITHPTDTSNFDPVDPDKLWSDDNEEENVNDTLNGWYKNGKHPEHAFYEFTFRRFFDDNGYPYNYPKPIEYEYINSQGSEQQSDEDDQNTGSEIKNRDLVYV

[2] = biological target: T2, Serine/threonine-protein kinase LATS (Homo sapiens) (UniProt Q9NRM7+O95835); experiment: Inhibition of LATS in human limbal epithelial cells assessed as induction of limbal stem cell expansion by measuring expansion factor ratio at 10 uM measured after 2 weeks by p63alpha expression detection based immunohistochemistry relative to control; design: scale not given: the % may be the effect or the level left
[3] = biological target: T2, Serine/threonine-protein kinase LATS (Homo sapiens); experiment: Inhibition of LATS in human corneal endothelium cells assessed as induction of cell expansion by measuring cell density at 10 uM by Sytox orange dye based epifluorescence microscopy
[4] = Total drug level in cell pellets of human limbal stem cells by LC-MS analysis; type: ADME
[5] = Total drug level in cell pellets of human corneal endothelium cells by LC-MS analysis; type: ADME
[6] = Drug level in cell pellets of human corneal endothelium cells by LC-MS analysis; type: ADME
Mus musculus [7] = experiment: Inhibition of LATS in C57BL/6J mouse assessed as change in CTGF mRNA expression level at 30 mg/kg, po administered as single dose measured after 2 hrs by qRT-PCR analysis relative to control; type: functional
Mus musculus [8] = experiment: Inhibition of LATS in C57BL/6J mouse assessed as change in Ki67 protein expression level at 30 mg/kg, po administered as single dose measured after 24 hrs by immunohistochemistry analysis relative to control; type: functional
Mus musculus [9] = experiment: Inhibition of LATS in C57BL/6J mouse assessed as change in Cyr61 mRNA expression level at 30 mg/kg, po administered as single dose measured after 2 hrs by qRT-PCR analysis relative to control; type: functional
[10] = Drug level in post wash cell pellets of human limbal stem cells by LC-MS analysis; type: ADME

T2 sequence (Q9NRM7 whole entry, looked up, one chain of several): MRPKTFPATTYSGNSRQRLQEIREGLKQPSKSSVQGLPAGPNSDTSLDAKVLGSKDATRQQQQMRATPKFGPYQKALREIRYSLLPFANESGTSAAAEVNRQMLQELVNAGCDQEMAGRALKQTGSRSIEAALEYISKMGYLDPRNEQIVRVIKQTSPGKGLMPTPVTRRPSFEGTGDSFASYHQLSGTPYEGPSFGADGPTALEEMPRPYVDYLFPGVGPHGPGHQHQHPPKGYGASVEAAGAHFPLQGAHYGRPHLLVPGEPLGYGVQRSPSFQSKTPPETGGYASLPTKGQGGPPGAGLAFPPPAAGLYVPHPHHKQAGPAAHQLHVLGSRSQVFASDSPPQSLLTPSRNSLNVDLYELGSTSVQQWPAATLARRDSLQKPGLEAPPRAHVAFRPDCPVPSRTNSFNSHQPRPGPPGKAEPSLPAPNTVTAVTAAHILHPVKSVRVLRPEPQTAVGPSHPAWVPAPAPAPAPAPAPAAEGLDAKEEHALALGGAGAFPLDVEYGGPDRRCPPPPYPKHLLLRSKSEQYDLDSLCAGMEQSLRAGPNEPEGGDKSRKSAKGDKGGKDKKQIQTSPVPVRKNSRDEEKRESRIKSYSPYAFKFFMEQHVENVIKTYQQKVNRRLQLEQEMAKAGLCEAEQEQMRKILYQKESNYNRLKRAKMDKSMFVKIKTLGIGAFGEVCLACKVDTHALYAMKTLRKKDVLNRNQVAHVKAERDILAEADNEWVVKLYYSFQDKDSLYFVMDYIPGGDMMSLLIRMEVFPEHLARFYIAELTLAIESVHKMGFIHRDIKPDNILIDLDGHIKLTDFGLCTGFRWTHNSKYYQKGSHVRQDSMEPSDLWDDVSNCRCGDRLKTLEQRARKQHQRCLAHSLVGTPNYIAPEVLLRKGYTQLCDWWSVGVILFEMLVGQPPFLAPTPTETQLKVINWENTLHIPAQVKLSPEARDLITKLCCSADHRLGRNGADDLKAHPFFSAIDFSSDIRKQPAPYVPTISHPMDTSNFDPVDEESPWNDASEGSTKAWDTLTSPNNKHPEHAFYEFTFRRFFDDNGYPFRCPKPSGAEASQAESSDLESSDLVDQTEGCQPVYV

Row | Activity [2] [%] | SMILES | Activity [3] | other results
1 | – | Cc1n[nH]c(C)c1-c1nc(NC(C)(C)C(F)(F)F)c2ccncc2n1 | – | IC50 [1]: 10 nM
2 | – | CN(C)CCC(C)(C)Nc1nc(-c2ccncc2)nc2cnccc12 | – | IC50 [1]: 1 nM
3 | 57 to 97 | FC(F)(F)C1(Nc2nc(-c3ccncc3)nc3cnccc23)CCC1 | 3300 /mm2 | –
4 | – | C[C@H](N(C)c1nc(-c2ccncc2)nc2cnccc12)C(F)(F)F | – | Drug uptake [4]: 340 pg; Drug uptake [5]: 0.75 pg; Drug uptake [6]: 0.004 to 0.071 nM
5 | – | c1cc(-c2nc(NCCCc3nnn[nH]3)c3ccncc3n2)ccn1 | – | fold change (FC) (Mus musculus [7]): 2.1; fold change (FC) (Mus musculus [8]): 3.3; fold change (FC) (Mus musculus [9]): 3.5
6 | 57 to 97 | FC(F)(F)C1CN(c2nc(-c3ccncc3)nc3cnccc23)CCN1 (centres undefined) | 2070 /mm2 | –
7 | – | O=C(O)CCCNc1nc(-c2ccncc2)nc2cnccc12 | – | IC50 [1]: > 2500 nM
8 | 57 to 97 | FC(F)(F)C1(Nc2nc(-c3ccncc3)cc3cnccc23)CC1 | 2780 /mm2 | –
9 | 57 to 97 | CC(C)(CO)Nc1nc(-c2ccncc2)nc2cnccc12 | 2500 /mm2 | –
10 | – | CC(C)N(C)c1nc(-c2ccncc2)nc2cnccc12 | 3910 /mm2 | Drug uptake [4]: 415 pg; Drug uptake [10]: 13.5 to 46.5 nM
11 | 57 to 97 | CC(C)(Nc1nc(-c2ccncc2Cl)nc2cnccc12)C(F)(F)F | 1180 /mm2 | –

Row | SMILES | Activity [2] [%] | Activity [3] | other results
12 | CC1CCCC1Nc1nc(-c2ccncc2)nc2cnccc12 (centres undefined) | 57 to 97 | 1630 /mm2 | –
